# According to publication PMC4553520, “Laboratory and Simulated Field Bioassays to Evaluate Larvicidal Activity of Pinus densiflora Hydrodistillate, Its Constituents and Structurally Related Compounds against Aedes albopictus, Aedes aegypti and Culex pipiens pallens in Relation to Their Inhibitory Effects on Acetylcholinesterase Activity” (Insects, 2013):
# Columns and labels:
# [1] = tested on: early third-instar larvae of Ae. albopictus; experiment: Direct-contact mortality bioassay, Ae. albopictus larvae; conditions: early third-instar larvae, 24 h exposure, direct contact
# Procedure: (§1) Direct-contact mortality bioassays were employed to evaluate the toxicity of all compounds, using early third-instar larvae of each mosquito species. Each compound was dissolved in methanol, and then further diluted in distilled water containing Triton X-100 (20 µL/L). Groups of 20 mosquito larvae of each species were put into separate paper cups (270 mL), each containing different compound solutions (250 mL). The toxicity of each compound was determined by repeating this experimental procedure with different concentrations, ranging from 5 to 200 mg/L. Temephos and fenthion served as standard references and were similarly formulated as well. Controls contained only methanol-Triton X-100 carrier solution in distilled water.
# (§2) Both treated and control larvae were kept under the same conditions as those used for colony maintenance. […] Due to certain constraints arising from the number of available larvae, all necessary bioassays could not be conducted simultaneously and thus, treatments were conducted over a period of time, with a separate control treatment included each time. Freshly prepared compound solutions were used for each round of bioassays. All bioassays were repeated three times.
# (§3) Concentration-mortality data were subjected to probit analysis using SAS [20]. […] Furthermore, for the compounds tested in AChE inhibition assays, a correlation analysis between their LC50 values and IC50 values was conducted using SAS [20].
# [2] = tested on: early third-instar larvae of Ae. aegypti; experiment: Direct-contact mortality bioassay, Ae. aegypti larvae; conditions: early third-instar larvae, 24 h exposure, direct contact
# Procedure: as §1, §2, §3
# [3] = tested on: early third-instar larvae of Cx. p. pallens; experiment: Direct-contact mortality bioassay, laboratory-reared Cx. p. pallens larvae; conditions: laboratory-reared early third-instar larvae, 24 h exposure, direct contact
# Procedure: as §1, §2, §3
# [4] = target: acetylcholinesterase (AChE) extracted from the heads of larval Ae. albopictus (Aedes albopictus, UniProt Q2PGF2); experiment: AChE inhibition assay, Ae. albopictus; format: biochemical; conditions: in vitro
# Sequence of acetylcholinesterase (AChE) extracted from the heads of larval Ae. albopictus (Q2PGF2 37-680): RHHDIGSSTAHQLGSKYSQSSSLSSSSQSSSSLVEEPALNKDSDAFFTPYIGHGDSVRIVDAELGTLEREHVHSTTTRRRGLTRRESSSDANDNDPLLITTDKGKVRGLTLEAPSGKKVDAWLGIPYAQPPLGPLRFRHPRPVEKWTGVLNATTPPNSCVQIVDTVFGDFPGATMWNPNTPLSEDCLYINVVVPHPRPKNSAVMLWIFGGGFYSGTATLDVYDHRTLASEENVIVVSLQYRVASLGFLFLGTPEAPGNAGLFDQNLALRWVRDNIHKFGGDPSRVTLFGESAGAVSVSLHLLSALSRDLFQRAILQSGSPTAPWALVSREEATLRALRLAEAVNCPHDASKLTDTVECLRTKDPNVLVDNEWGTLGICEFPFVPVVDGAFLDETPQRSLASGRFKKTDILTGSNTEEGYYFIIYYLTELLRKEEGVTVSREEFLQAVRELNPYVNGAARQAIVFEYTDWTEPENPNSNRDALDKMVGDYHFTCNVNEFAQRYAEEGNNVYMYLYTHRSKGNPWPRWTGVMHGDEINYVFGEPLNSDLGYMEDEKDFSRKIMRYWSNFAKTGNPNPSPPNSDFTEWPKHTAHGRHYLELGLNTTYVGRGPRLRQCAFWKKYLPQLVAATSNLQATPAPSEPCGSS
# Procedure: (§4) For each species, larvae frozen at −20 °C were decapitated and 100 heads were homogenized in 5 mL of ice-cold 0.1 M sodium phosphate buffer (pH 8.0), using a Teflon glass tissue homogenizer. The homogenate was centrifuged at 10,000 × g at 4 °C for 20 min. The supernatant was filtered by a 0.22 µm-Millex-GV filter (Millipore, Cork, Ireland) and was used as the AChE preparation. Protein concentrations were determined by the Bradford dye method using BSA as the standard. A microplate AChE assay was carried out following the method of Moores et al. adapted from Ellman et al.. The reaction mixture consisted of 80 µL of the crude enzyme preparation, 10 µL of 7.5 mM DTNB in phosphate buffer (pH 7.0) and 100 µL of the selected test compounds of various concentrations in 2.5% acetone. The reaction mixture was incubated at 30 °C for 5 min and 10 µL of 6.25 mM ATChI was then added to the mixture. The absorbance was recorded at 414 nm, using a Molecular Devices VersaMax microplate reader (Sunnyvale, CA, USA). All AChE inhibition assays were repeated three times in triplicates.
# as §3
# [5] = target: acetylcholinesterase (AChE) extracted from the heads of larval Ae. aegypti (Aedes aegypti, UniProt Q6A2E2); experiment: AChE inhibition assay, Ae. aegypti; format: biochemical; conditions: in vitro
# Sequence of acetylcholinesterase (AChE) extracted from the heads of larval Ae. aegypti (Q6A2E2 37-679): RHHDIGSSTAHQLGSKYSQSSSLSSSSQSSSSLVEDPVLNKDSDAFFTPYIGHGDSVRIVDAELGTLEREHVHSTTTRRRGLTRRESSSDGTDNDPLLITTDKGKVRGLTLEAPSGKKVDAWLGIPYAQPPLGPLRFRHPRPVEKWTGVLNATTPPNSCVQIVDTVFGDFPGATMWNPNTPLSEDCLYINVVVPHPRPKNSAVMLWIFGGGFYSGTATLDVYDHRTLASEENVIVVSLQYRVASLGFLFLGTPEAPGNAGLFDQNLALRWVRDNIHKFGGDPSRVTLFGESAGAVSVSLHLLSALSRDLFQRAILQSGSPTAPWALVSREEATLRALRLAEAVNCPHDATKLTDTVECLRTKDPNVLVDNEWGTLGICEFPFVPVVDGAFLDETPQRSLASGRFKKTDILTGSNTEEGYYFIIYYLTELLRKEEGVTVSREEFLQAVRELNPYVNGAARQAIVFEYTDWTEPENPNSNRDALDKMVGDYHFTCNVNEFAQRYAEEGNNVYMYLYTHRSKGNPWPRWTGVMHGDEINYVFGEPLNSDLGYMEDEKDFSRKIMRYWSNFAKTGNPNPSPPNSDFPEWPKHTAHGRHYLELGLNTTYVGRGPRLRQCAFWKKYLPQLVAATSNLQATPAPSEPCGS
# Procedure: as §4, §3
# [6] = target: acetylcholinesterase (AChE) extracted from the heads of larval Cx. p. pallens (Culex pipiens pallens, UniProt Q86GC8); experiment: AChE inhibition assay, Cx. p. pallens; format: biochemical; conditions: in vitro
# Sequence of acetylcholinesterase (AChE) extracted from the heads of larval Cx. p. pallens (Q86GC8 37-702): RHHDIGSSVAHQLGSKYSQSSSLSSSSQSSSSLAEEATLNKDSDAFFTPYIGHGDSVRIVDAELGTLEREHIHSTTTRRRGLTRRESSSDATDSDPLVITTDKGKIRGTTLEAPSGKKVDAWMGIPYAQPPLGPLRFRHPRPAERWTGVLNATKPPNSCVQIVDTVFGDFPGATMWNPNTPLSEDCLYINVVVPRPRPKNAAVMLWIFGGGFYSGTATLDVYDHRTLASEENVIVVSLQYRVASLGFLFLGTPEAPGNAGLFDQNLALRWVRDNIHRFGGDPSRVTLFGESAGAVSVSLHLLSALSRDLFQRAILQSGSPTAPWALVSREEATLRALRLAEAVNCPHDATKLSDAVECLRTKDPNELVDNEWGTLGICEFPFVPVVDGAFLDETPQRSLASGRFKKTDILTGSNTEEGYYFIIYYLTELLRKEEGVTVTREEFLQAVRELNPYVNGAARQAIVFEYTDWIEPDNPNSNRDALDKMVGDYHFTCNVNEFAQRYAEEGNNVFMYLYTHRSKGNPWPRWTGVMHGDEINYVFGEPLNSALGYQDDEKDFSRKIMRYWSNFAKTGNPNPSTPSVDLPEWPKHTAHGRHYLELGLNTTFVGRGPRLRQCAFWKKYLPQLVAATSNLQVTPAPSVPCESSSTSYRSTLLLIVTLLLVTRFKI
# Procedure: as §4, §3
Compound,"LC50 (Ae. albopictus), mg/L (95% CL) [1]","LC50 (Ae. aegypti), mg/L (95% CL) [2] [mg/L]","LC50 (Cx p. pallens), mg/L (95% CL) [3]",IC50 [4] [mM],IC50 [5] [mM],IC50 [6] [mM]
C/C1=C\CC/C(C)=C/CC(C)(C)/C=C/C1 [α-humulene],>150 mg/L,>150,>150 mg/L,47.6,58.1,62.3
(−)-myrtenal,137.86 (119.15–173.91) mg/L,>150,139.61 (122.92–169.77) mg/L,23.7,34,31.6
